Data set [1] in a line: Neurotoxicity in Wistar rat neuronal cells assessed as induction of mortality at 10 uM. The data set is classed as toxicity, cell-based.
Data set [2] is described as follows: Neurotoxicity in Wistar rat neuronal cells assessed as induction of mortality at 100 uM. Format: toxicity, cell-based.
Data set [3] in a line: Binding affinity to immobilized amyloid beta 25-35 by Surface plasmon resonance.
Data set [4] can be described thus: Protective effect against beta amyloid oligomers induced toxicity in Wistar rat neuronal cells at 100 uM. Format: functional.

pKd: −log10 of the molar value. Where a SMILES comes first, the peptide text is derived from it. [ ]: non-standard residue; d: D form. αMeP = C[C@@]1(C(=O)O)CCCN1; Aze = O=C(O)[C@@H]1CCN1; Aib = CC(C)(N)C(=O)O

As to `CC[C@H](C)[C@H](N)C(=O)N[C@H](C(=O)NCC(=O)N[C@@H](CC(C)C)C(=O)N[C@@H](CCSC)C(N)=O)[C@@H](C)CC` (H-IIGLM-NH2), the Activity in data set [1] and in data set [2] was 10% in each case. Consider `CC[C@H](C)[C@H](N)C(=O)N[C@H](C(=O)NC(C)(C)C(=O)N[C@@H](CC(C)C)C(=O)N[C@@H](CCSC)C(N)=O)[C@@H](C)CC` (H-II[Aib]LM-NH2), for which the pKd in data set [3] is 2.59. In data set [4], this molecule yielded an Activity of 24%. `CC[C@H](C)[C@H](N)C(=O)N[C@H](C(=O)NCC(=O)N[C@@H](CC(C)C)C(=O)N[C@@H](CCSC)C(=O)O)[C@@H](C)CC` (H-IIGLM-OH): in data set [1], the Activity is recorded as 21%.

In turn, `CC[C@H](C)[C@H](N)C(=O)N[C@H](C(=O)N1CCC[C@H]1C(=O)N[C@@H](CC(C)C)C(=O)N[C@@H](CCSC)C(N)=O)[C@@H](C)CC` (H-IIPLM-NH2) had a pKd in data set [3] of 2.35.

For the molecule `Nc1c(/N=N/c2ccc(-c3ccc(/N=N/c4cc(S(=O)(=O)O)c5ccccc5c4N)cc3)cc2)cc(S(=O)(=O)O)c2ccccc12` [CONGO RED], in data set [3], the pKd is 4.89.

Turning to `CC[C@H](C)[C@H](N)C(=O)N[C@H](C(=O)N1CCC[C@@]1(C)C(=O)N[C@@H](CC(C)C)C(=O)N[C@@H](CCSC)C(N)=O)[C@@H](C)CC` (H-II[αMeP]LM-NH2), the pKd in data set [3] was 2.82.

Turning to `CC[C@H](C)[C@H](N)C(=O)N[C@H](C(=O)N1CC[C@H]1C(=O)N[C@@H](CC(C)C)C(=O)N[C@@H](CCSC)C(N)=O)[C@@H](C)CC` (H-II[Aze]LM-NH2), the pKd in data set [3] is 2.34.

Source of the values: ChEMBL document CHEMBL1143115, “Synthesis and biological properties of beta-turned Abeta(31-35) constrained analogues” (Bioorg Med Chem Lett, 2008).
